Reference: US10752900B2, “Oligonucleotides for modulating gene expression and uses thereof” (BIOGENERA S.P.A., priority 2012, dated 2020)

Key:
[1] = test system: rabdomyosarcoma cells (RH30); test: Cellular proliferation assay (ATP-Lite), RH30 cells; format: cell-based, human; settings: Table 6, PNA
Protocol: For the purpose of assessing the gene modulation ability of the oligonucleotides of the present invention, the effect of their administration on cell viability was determined. For this purpose 5×10^3 cells per well were seeded into 96-well cell culture plates (experiments conducted in triplicate) with 100 μl of OPTI-MEM (GIBCO BRL) medium containing 4% FBS and 2 mM of L-glutammine. The PNA oligonucleotides were administered at different concentrations (1 μM-2.5 μM-5 μM-10 μM) in order to observe a dose-effect relationship. As regards all the other oligonucleotides, the concentrations at which they administered are listed in the paragraph: The viability of the treated cells was determined at 48, 72, 96 and 168 hours after treatment. Cell viability was assessed by means of an ATP-Lite assay (Luminescence ATP Detection Assay System, PerkinElmer) and is reported as the ratio between the average signal of the treated wells compared to the average value of the wells of untreated control cells. The cells were processed following the instructions provided with the kit. The assays were performed on the same cell lines used to determine the levels of the MYCN gene messenger and listed in the paragraph: Treatments with Oligonucleotides-QT-PCR. The PNAs having SEQ ID NO: 1-12 were also tested on different cell lines which overexpress MYCN (Kelly, SKNBE2c, RH30, […] 1 and H69). The results are shown in Table 6 and confirm the selectivity and specificity of the inhibition effect of the PNAs on the product of protein translation of the MYCN gene. Chimeric oligonucleotides comprising DNA monomers and LNA monomers and having the MYCN gene as their target were tested in vitro on alveolar rabdomyosarcoma cells (RH30). […] The antisense oligonucleotides designed and synthesized by the Applicant according to the parameters described in the present invention were analyzed in vitro on rabdomyosarcoma cells (RH30).

MYCN gene = test: QT-PCR, MYCN mRNA in WERI-Rb1 cells; format: cell-based; settings: Table 6
Protocol: For the purpose of assessing the ability of the oligonucleotides of the present invention to modulate the expression of the target genes, their ability to reduce the quantity of messenger RNA was analyzed using the Real-Time PCR technique. For this purpose, use was made of 24-well plates, which were seeded with 5.0×10^4 cells with 0.3 ml of OPTI-MEM (GIBCO BRL) medium, 4% FBS and 2 mM L-glutammine (experiments in triplicate) per well. The cells were incubated for 24 hours at 37° C., in an atmosphere containing 5% CO2 to permit adherence to the base of the wells. For each well, the oligonucleotides were analyzed at the following final concentrations: • the antisense oligonucleotides siRNA and siRNA gapmer (i.e. the oligonucleotides containing one or more monomers of chemically modified nucleic acids at the 3' or 5' end, while in the central portion they have monomers of nucleic acids that have not been modified or have been modified at the level of the phosphodiester bond as a phosphorothioate bond) were used at 200 nM; • the antisense oligonucleotides containing phosphorothioate DNA monomers, the RNA antigene oligonucleotides (agRNA) and the oligonucleotides containing DNA monomers and LNA monomers were used at 10 μM; • the morpholino oligonucleotides were used at a concentration of 1 μM, and • the PNA oligonucleotides were administered at a concentration of 1 μM. The cells were treated with the oligonucleotides, adding FBS up to 4% 6 hours after administration of the same. After 24 hours the total RNA was extracted from each well and purified using the RNeasy Mini Kit (QIAGEN). As a control, use was made of the same cell lines as listed above treated with sterile water instead of oligonucleotides. Each RNA sample was quantified (in duplicate) using a NanoDrop ND-1000 spectrophotometer (NanoDrop Technologies). The first strand of cDNA was produced using the cDNA Synthesis Kit for RT-PCR (Roche). For the cDNA synthesis reaction a total of 1 μg of RNA was used. For the real-time PCR, 10 ng of cDNA in a final volume of 20 μl was used with SYBR Green Master Mix 2× (Applied Biosystems) (3 identical experiments were conducted in triplicate). Two housekeeping genes were used as positive controls: GAPDH and beta-actin (ACTB). The conditions of the QT-PCR reaction were: 10 min at 95° C., 20 sec at 95° C., and 30 sec at 60° C., for 50 cycles. The PNAs having SEQ ID NO: 1-12 were also tested on different cell lines which overexpress MYCN (Kelly, SKNBE2c, RH30, […] 1 and H69). The results are shown in Table 6 and confirm the selectivity and specificity of the inhibition effect of the PNAs on the product of protein translation of the MYCN gene.

Substance	RH30 % cell prol. [1] [%]	WERI-Rb1 % mRNA (MYCN gene) [%]
SEQ ID NO: 1: PNA ATGCCGGGCATGATCT against MYCN; subject of patent EP 1618195, control sequence used for comparison (all peptide nucleic acid (PNA)) [reference compound]	76	31
SEQ ID NO: 2: PNA antigene oligonucleotide GGGTGGATGCGGGGGG directed against MYCN (PNA backbone, chemistry not fully specified)	56	46
SEQ ID NO: 3: PNA antigene oligonucleotide GATGCGGGGGGCTCCT directed against MYCN (PNA backbone, chemistry not fully specified)	59	43
SEQ ID NO: 4: PNA antigene oligonucleotide GTCGGCGGGAGGTAAG directed against MYCN (PNA backbone, chemistry not fully specified)	62	41
SEQ ID NO: 5: PNA antigene oligonucleotide GCTGGGTGGATGCGGG directed against MYCN (PNA backbone, chemistry not fully specified)	64	38
SEQ ID NO: 6: PNA antigene oligonucleotide TGGACGCGCTGGGTGG directed against MYCN (PNA backbone, chemistry not fully specified)	64	37
SEQ ID NO: 7: PNA antigene oligonucleotide CGCGCTGGGTGGATGC directed against MYCN (all peptide nucleic acid (PNA))	63	38
SEQ ID NO: 8: PNA antigene oligonucleotide GTCTGGACGCGCTGGG directed against MYCN (all peptide nucleic acid (PNA))	60	40
SEQ ID NO: 9: PNA antigene oligonucleotide CCCTGCAGTCGGCGGG directed against MYCN (all peptide nucleic acid (PNA))	71	36
SEQ ID NO: 10: PNA antigene oligonucleotide CGGCCGCGGGCCGCCA directed against MYCN (PNA backbone, chemistry not fully specified)	80	30
SEQ ID NO: 11: PNA antigene oligonucleotide GGGAACTGTGTTGGAG directed against MYCN (PNA backbone, chemistry not fully specified)	78	30
SEQ ID NO: 12: PNA antigene oligonucleotide TGTCTGGACGCGCTGG directed against MYCN (all peptide nucleic acid (PNA))	77	30
